Experimental data as given in patent US6667316B1, “Pharmaceutically active isoindoline derivatives” (Celgene Corporation, priority 1999, dated 2003).

Compound	melting point [°C]
CCOc1cc(C(CS(C)(=O)=O)N2C(=O)c3ccc([N+](=O)[O-])c([N+](=O)[O-])c3C2=O)ccc1OC (centres unmarked)	122 to 124
CCOc1cc(C(CS(C)(=O)=O)N2C(=O)c3cccc(NC(=O)C(C)N(C)C)c3C2=O)ccc1OC.Cl (centres unmarked)	138 to 140
CCOc1cc([C@H](CS(C)(=O)=O)N2C(=O)c3cccc(NC(=O)CN(C)C)c3C2=O)ccc1OC.Cl	192 to 194
CCOc1cc([C@@H](CS(C)(=O)=O)N2C(=O)c3cccc(NC(=O)CN(C)C)c3C2=O)ccc1OC.Cl	202 to 204
COc1ccc(C(CS(C)(=O)=O)N2C(=O)c3cccc(NC(=O)CN(C)C)c3C2=O)cc1OC.Cl (centres unmarked)	178 to 180
CCOc1cc(C(CS(C)(=O)=O)N2Cc3cccc(NC(=O)CN(C)C)c3C2=O)ccc1OC.Cl (centres unmarked)	145 to 147
CCOc1cc(C(CC(=O)N(C)C)N2C(=O)c3cccc(NC(=O)CN(C)C)c3C2=O)ccc1OC.Cl (centres unmarked)	92 to 94
CCOc1cc([C@@H](CC(=O)N(C)C)N2C(=O)c3cccc(NC(=O)CN(C)C)c3C2=O)ccc1OC.Cl	122 to 124
CCOc1cc(C(CS(C)(=O)=O)N2C(=O)c3ccc(N)c(N)c3C2=O)ccc1OC (centres unmarked) [Example 2, 2-[1-(3-Ethoxy-4-methoxyphenyl)-2-methylsulfonylethyl]-4,5-diaminoisoindoline-1,3-dione]	205 to 207
CCOc1cc(C(CS(C)(=O)=O)N2C(=O)c3cccc(NC(=O)C4CC4)c3C2=O)ccc1OC (centres unmarked) [Example 7, Cyclopropyl-N-{2-[1-(3-ethoxy-4-methoxyphenyl)-2-methylsulfonylethyl]-1,3-dioxoisoindolin-4-yl}carboxamide]	153 to 155
CCOc1cc(C(CS(C)(=O)=O)N2C(=O)c3cccc(NC(=O)CCl)c3C2=O)ccc1OC (centres unmarked) [Example 8, 2-Chloro-N-{2-[1-(3-ethoxy-4-methoxyphenyl)-2-methylsulfonylethyl]-1,3-dioxoisoindolin-4-yl}acetamide]	166 to 168
CCOc1cc(C(CS(C)(=O)=O)N2C(=O)c3cccc(NC(=O)CN)c3C2=O)ccc1OC (centres unmarked) [Example 9, 2-Amino-N-{2-[1-(3-ethoxy-4-methoxyphenyl)-2-methylsulfonylethyl]-1,3-dioxoisoindolin-4-yl}acetamide]	111 to 112
CCOc1cc(C(CS(C)(=O)=O)N2C(=O)c3cccc(NC(=O)C(F)(F)F)c3C2=O)ccc1OC (centres unmarked) [Example 11, N-{2-[1-(3-ethoxy-4-methoxyphenyl)-2-methylsulfonylethyl]-1,3-dioxoisoindolin-4-yl}-2,2,2-trifluoroacetamide]	130 to 132
CCOc1cc(C(CS(C)(=O)=O)N2C(=O)c3cccc(CONC=O)c3C2=O)ccc1OC (centres unmarked) [Example 12, N-{2-[1-(3-Ethoxy-4-methoxyphenyl)-2-methylsulfonylethyl]-1,3-dioxoisoindolin-4-yl}methoxycarboxamide]	178 to 180
CCOc1cc(C(CS(C)(=O)=O)N2C(=O)c3cccc(-c4nnc(C)o4)c3C2=O)ccc1OC (centres unmarked) [Example 15, 2-[1-(3-Ethoxy-4-methoxyphenyl)-2-methylsulfonylethyl]-4-(5-methyl-1,3,4-oxadiazol-2-yl)isoindoline-1,3-dione]	99 to 101
CCOc1cc(C(CC(C)O)N2C(=O)c3cccc(NC(C)=O)c3C2=O)ccc1OC (centres unmarked) [Example 24, N-{2-[1-(3-ethoxy-4-methoxyphenyl)-3-hydroxybutyl]-1,3-dioxoisoindolin-4-yl}acetamide]	132 to 134
CCOc1cc(C(CC(C)=O)N2C(=O)c3cccc(NC(C)=O)c3C2=O)ccc1OC (centres unmarked) [Example 25, N-{2-[1-(3-Ethoxy-4-methoxyphenyl)-3-oxobutyl]-1,3-dioxoisoindolin-4-yl}acetamide]	128 to 129
CCOc1cc([C@@H](CC(C)=O)N2C(=O)c3cccc(NC(C)=O)c3C2=O)ccc1OC [Example 27, N-{2-[1R-(3-ethoxy-4-methoxyphenyl)-3-oxobutyl]-1,3-dioxoisoindolin-4-yl}acetamide]	81 to 83
CCOc1cc(C(CS(C)(=O)=O)N2C(=O)c3cccc(NC(=O)C4CCCC4)c3C2=O)ccc1OC (centres unmarked) [Example 45, Cyclopentyl-N-{2-[1-(3-ethoxy-4-methoxyphenyl)-2-(methylsulfonyl)ethyl]-1,3-dioxoisoindolin-4-yl}carboxamide]	134 to 136
CCOc1cc(C(CS(C)(=O)=O)N2C(=O)c3cccc(NC(=O)CCN(C)C)c3C2=O)ccc1OC (centres unmarked) [Example 46, 3-(Dimethylamino)-N-{2-[1-(3-ethoxy-4-methoxyphenyl)-2-(methylsulfonyl)ethyl]-1,3-dioxoisoindolin-4-yl}propanamide]	163 to 165
CCOc1cc([C@@H](CS(C)(=O)=O)N2C(=O)c3cccc(NC(=O)C4CC4)c3C2=O)ccc1OC [Example 51, Cyclopropyl-N-{2-[(1S)-1-(3-ethoxy-4-methoxyphenyl)-2-(methylsulfonyl)ethyl]-1,3-dioxoisoindolin-4-yl}carboxamide]	140 to 141
COc1ccc(C(CS(C)(=O)=O)N2C(=O)c3cccc(NC(=O)C4CC4)c3C2=O)cc1OC (centres unmarked) [Example 54, Cyclopropyl-N-{2-[1-(3,4-dimethoxyphenyl)-2-(methylsulfonyl)ethyl]-1,3-dioxoisoindolin-4-yl}carboxamide]	130 to 132
CCOc1cc([C@@H](CC(=O)N(C)C)N2Cc3cccc(NC(C)=O)c3C2=O)ccc1OC [Example 59, (3R)-3-[7-(Acetylamino)-1-oxoisoindolin-2-yl]-3-(3-ethoxy-4-methoxyphenyl)-N,N-dimethylpropanamide]	88 to 90
CCOc1cc([C@@H](CC(=O)N(C)C)N2Cc3cccc(NC(=O)C4CC4)c3C2=O)ccc1OC [Example 60, (3R)-3-[7-(Cyclopropylcarbonylamino)-1-oxoisoindolin-2-yl]-3-(3-ethoxy-4-methoxyphenyl)-N,N-dimethylpropanamide]	92 to 94
CCOc1cc(C(CS(C)(=O)=O)N2C(=O)c3cccc(CNC(C)=O)c3C2=O)ccc1OC (centres unmarked) [Example 66, N-({2-[1-(3-Ethoxy-4-methoxyphenyl)-2-(methylsulfonyl)ethyl]-1,3-dioxoisoindolin-4-yl}methyl)acetamide]	84 to 86
CCOc1cc(C(CS(C)(=O)=O)N2C(=O)c3cccc(N(S(C)(=O)=O)S(C)(=O)=O)c3C2=O)ccc1OC (centres unmarked) [Example 69, 4-[Bis(methylsulfonyl)amino]-2-[1-(3-ethoxy-4-methoxyphenyl)-2-(methyl-sulfonyl)ethyl]isoindoline-1,3-dione]	277 to 279
CCOc1cc(C(CC(=O)CC)N2C(=O)c3cccc(NC(C)=O)c3C2=O)ccc1OC (centres unmarked) [Example 72, N-{2-[1-(3-Ethoxy-4-methoxyphenyl)-3-oxopentyl]1,3-dioxoisoindolin-4-yl}acetamide]	137 to 139
COc1ccc(C(CC(C)=O)N2C(=O)c3cccc(NC(C)=O)c3C2=O)cc1OC1CCCC1 (centres unmarked) [Example 76, N-{2-[1-(3-Cyclopentyloxy-4-methoxyphenyl)-3-oxobutyl]-1,3-dioxoisoindolin-4-yl}acetamide]	145 to 147
COc1ccc(C(CC(C)=O)N2C(=O)c3cccc(N(S(C)(=O)=O)S(C)(=O)=O)c3C2=O)cc1OC (centres unmarked) [Example 78, 2-[1-(3,4-Dimethoxyphenyl)-3-oxobutyl]-4-[bis(methylsulfonyl)amino]isoindoline-1,3-dione]	194 to 196
